The source of these data is ChEMBL document CHEMBL3872260, “Influence of chain length on the activity of tripeptidomimetic antagonists for CXC chemokine receptor 4 (CXCR4)” (Bioorg Med Chem, 2017).

pEC50: −log10 of the molar value. A value given as a limit tells only on which side of the number the result lay.

This test has as its target C-X-C chemokine receptor type 4 (Homo sapiens, UniProt P61073). The test is described as follows: Antagonist activity at wild-type human CXCR4 expressed in COS7 cells co-expressing chimeric galphai assessed as inhibition of CXCL12-induced [3H]inositol-phosphate accumulation measured after 90 mins in presence of Myo-[2-3H]-inositol by scintillation proximity assay. Type of test: functional, cell-based, COS-7. The note with it: for pEC50: read-out: EC50; for EC50: read-out: pEC50 (converted). A general note: SPA uses beads or plates that emit light when radiolabelled molecules are held near them.

What is called pEC50 is the EC50 on a negative log10 scale, so that one unit is a factor of ten.

Sequence of C-X-C chemokine receptor type 4 (P61073 whole entry): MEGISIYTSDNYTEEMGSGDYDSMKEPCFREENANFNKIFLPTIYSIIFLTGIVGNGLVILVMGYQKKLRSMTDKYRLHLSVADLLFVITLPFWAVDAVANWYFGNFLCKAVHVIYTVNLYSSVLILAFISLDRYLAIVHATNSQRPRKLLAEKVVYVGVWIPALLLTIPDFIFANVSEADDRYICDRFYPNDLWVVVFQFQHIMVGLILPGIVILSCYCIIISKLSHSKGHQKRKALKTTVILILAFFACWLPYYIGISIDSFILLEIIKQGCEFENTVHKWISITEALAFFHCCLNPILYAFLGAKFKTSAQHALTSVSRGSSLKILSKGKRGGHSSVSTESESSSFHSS

Consider `N=C(N)NCCCC[C@H]1C(=O)N(CCc2ccc3ccccc3c2)C[C@@H]2SC[C@H](CCCNC(=N)N)C(=O)N21`, for which the pEC50 is less than 4.00.

As to `N=C(N)NCCC[C@H]1C(=O)N(CCc2ccc3ccccc3c2)C[C@@H]2SC[C@H](CCNC(=N)N)C(=O)N21`, the negative-log EC50 (pEC50) is less than 4.00 and the EC50 was less than 100 µM.

On to `N=C(N)NCCCC1CSC2CN(Cc3cccc4ccccc34)C(=O)[C@H](CCCNC(=N)N)N2C1=O` (mixture of isomers), for which the pEC50 is less than 4.00.

Take `N=C(N)NCCCC1CSC2CN(Cc3ccc4ccccc4c3)C(=O)[C@H](CCCNC(=N)N)N2C1=O` (mixture of isomers): the pEC50 was less than 4.00 and the EC50 was less than 100 µM.

Turning to `N=C(N)NCCCC[C@H]1C(=O)N(CCc2ccc3ccccc3c2)C[C@H]2SC[C@@H](CCCNC(=N)N)C(=O)N21`, the pEC50 is less than 4.00 and the EC50 is less than 100 µM.

On to `N=C(N)NCCCC[C@@H]1CS[C@@H]2CN(CCc3ccc4ccccc4c3)C(=O)[C@H](CCCNC(=N)N)N2C1=O`, for which the pEC50 is less than 4.00 and the EC50 was less than 100 µM.

In the case of `N=C(N)NCCCC[C@H]1C(=O)N(CCc2ccc3ccccc3c2)C[C@H]2SC[C@@H](CCNC(=N)N)C(=O)N21`, the pEC50 is less than 4.00 and the EC50 is less than 100 µM.

For `N=C(N)NCCCC[C@H]1CS[C@H]2CN(CCc3ccc4ccccc4c3)C(=O)[C@H](CCCNC(=N)N)N2C1=O`, the negative logarithm of the EC50 (pEC50) is less than 4.00 and the EC50 was less than 100 µM.

Consider `N=C(N)NCCC[C@H]1C(=O)N(CCc2ccc3ccccc3c2)C[C@H]2SC[C@@H](CCNC(=N)N)C(=O)N21`, for which the pEC50 was less than 4.00.

As to `N=C(N)NCCCC[C@H]1C(=O)N(CCc2ccc3ccccc3c2)C[C@@H]2SC[C@H](CCNC(=N)N)C(=O)N21`, the negative-log EC50 (pEC50) was less than 4.00 and the EC50 was less than 100 µM.

With `N=C(N)NCCCC1CSC2CN(Cc3ccc4ccccc4c3Br)C(=O)[C@H](CCCNC(=N)N)N2C1=O` (mixture of isomers), the pEC50 is 4.21.
